The subject of one experiment is HIV-1 6R(AZT^R). As to the kind of experiment: XTT cytopathicity assay, AZT-resistant 6R. Particulars: MT-4, 6R(AZT^R). The experiment is classed as cell-based. How it is done: (§1) Initial anti-HIV screening was performed with CEM-SS cells and HIV-1RFusing the XTT cytoprotection assay as previously described (Weislow et al., J. National Cancer Inst. 81: 577-586, (1989)). HIV-1 isolates included common laboratory stains (RF, IIIB and MN), as well as a panel of HIV-1 clinical isolates (Cushman et al., J. Med. Chem. 37: 3040-3050, (1994)). The pyridone-resistant HIV-1A17 isolate (Nunberg et al., J. Virol., 65: 4887-4892 (1991)) was obtained from Emilio Emini at Merck Sharpe and Dohme Laboratories. Phytohemagglutinin-stimulated human peripheral blood lymphocytes (PBLs) and fresh monocyte-macrophage (Mono/MF) cultures were prepared and utilized in antiviral assays as previously described (Rice et al., Proc. Nat'l. Academy Science, USA 90: 9721-9724, (1993)); (Cushman et al., J. Med. Chem. 37: 3040-3050, (1994)). EC50 values for these cultures indicate the drug concentration that provided a 50% reduction in viral p24 production. […] The compounds can be synthesized according to the teachings of Singh et al., Sulfur Letters 8: 107-114, (1988). The 4,5-cis-dihydroxy(1,1-dioxy-1,2,-dithiohexane) compound (NSC 624151) has been abbreviated as 624151 for convenience. […]
For orientation: Formazan colour is commonly taken as a measure of viable cells.

The next experiment deals with Pr55^gag. The experiment in a line: immunoblot of viral proteins in U1 cells (Gag precursor processing). The experiment is classed as cell-based, HIV-1. The following applies: FIG. 3(B), in words. Here is the method:
U1 cells latently infected with two copies of HIV-1 proviral DNA per cell (Clous et al., J. Immunol. 142: 431-438, (1989)) were treated with 5 ng/ml tumor necrosis factor-α(TNF-α) for 24 hours to stimulate production of HIV-1 virions, after which various concentrations of 624151 were added to the cultures and incubated for an additional 48 hours. Cultures were analyzed for cell viability by the XTT reduction assay and cells were counted and scored for viability by trypan blue exclusion. Cells pellets were lysed (0.5% Triton X-100, 300 mM NaCl, 50 mM Tris-HCl, pH 7.6, 10 μg/ml each of Leupeptin and aprotinin (Boehringer Mannheim), 1.8 mg/ml iodoacetamide (Sigma Chemical Co., St. Louis, Mo.) and 1.0 mg/ml the protease inhibitor Pefabloc SC (Boehringer Mannheim at 4° C. for 15 min. and then quantitated for viral p24 content by ELISA. Cell-free supernatant samples were collected and analyzed for virus content by p24 ELISA, and infectivity in cultures of 174xCEM cells. Briefly, serial 1/2 dilutions of the supernatant were placed with 5×10^3 174xCEM cells and cultured for 7 days, cell supernatants were analyzed for viral p24 content, and the number of infectious units/ml calculated. In addition, cell free supernatants were centrifuged at 17,000×g for 1 hour at 4° C. to collect virion pellets. […]
On the technique in general: In western blotting, separated proteins are transferred to a membrane and probed.

A further experiment deals with T1, gp120-CD4 (UniProt P01730+P03375).
T1 construct: purchased
The experiment in a line: gp120-CD4 binding, antigen capture ELISA. Also noted: species or system HIV-1. How it is done: Binding of HIV-1RF to PBLs was measured by a p24-based assay (Rice, et al., Proc. Nat'l. Academy of Science USA 90: 9721-9724, (1993)). Briefly, 5×10^5 PBLs were incubated with a concentrated stock of virus for 30 min. at 37° C. in the absence or presence of various concentrations of 624151, the unbound virus was washed away, and the cell-associated virus was solubilized in 1% Triton X-100, 1% BSA and analyzed by the p24 antigen capture assay as previously described. The binding of gp120to CD4 was analyzed using an antigen capture ELISA. All steps of the assay were carried out according to the manufacturer's protocols.
^.dagger. Attachment of HIV1 to fresh human PBLs, binding of gp120 to
CD4, and the effects of compounds on HIV1 RT and protease were quantitate
For orientation: ELISA stands for enzyme-linked immunosorbent assay.

For a further experiment, the target named is T2, HIV-1 protease (Human immunodeficiency virus type 1 group M subtype B, UniProt P04585).
T2 construct: the purified HIV-1 protease and integrase enzymes
The experiment in a line: HIV-1 protease activity, reversed phase HPLC assay. Type of experiment: biochemical.

A further experiment relates to SIV. The experiment in a line: XTT cytopathicity assay, other retroviruses. Type of experiment: cell-based. The following applies: Simian immunodeficiency virus.
The next experiment relates to HIV-1IIIB. As to the kind of experiment: XTT cytopathicity assay, HIV-1IIIB. Type of experiment: cell-based. Here is the method: (§2) Initial anti-HIV screening was performed with CEM-SS cells and HIV-1RFusing the XTT cytoprotection assay as previously described (Weislow et al., J. National Cancer Inst. 81: 577-586, (1989)). HIV-1 isolates included common laboratory stains (RF, IIIB and MN), as well as a panel of HIV-1 clinical isolates (Cushman et al., J. Med. Chem. 37: 3040-3050, (1994)). The pyridone-resistant HIV-1A17 isolate (Nunberg et al., J. Virol., 65: 4887-4892 (1991)) was obtained from Emilio Emini at Merck Sharpe and Dohme Laboratories. Phytohemagglutinin-stimulated human peripheral blood lymphocytes (PBLs) and fresh monocyte-macrophage (Mono/MF) cultures were prepared and utilized in antiviral assays as previously described (Rice et al., Proc. Nat'l. Academy Science, USA 90: 9721-9724, (1993)); (Cushman et al., J. Med. Chem. 37: 3040-3050, (1994)). EC50 values for these cultures indicate the drug concentration that provided a 50% reduction in viral p24 production. […] The compounds can be synthesized according to the teachings of Singh et al., Sulfur Letters 8: 107-114, (1988). The 4,5-cis-dihydroxy(1,1-dioxy-1,2,-dithiohexane) compound (NSC 624151) has been abbreviated as 624151 for convenience. MT-2, MT-4, U1, HeLa-CD4-LTR-β-gal and 174xCEM cells were obtained from the AIDS Research and Reference Program (National Institute of Allergy and Infectious Disease, National Institutes of Health, Bethesda, Md. USA), as were the HIV-2MS and the AZT-resistant HIV-1G910-6 isolates.
(§3) ^a Anti-HIV studies utilizing lymphocytederived cell lines were
(§4) performed using the XTT cytopathicity assay, while antiviral assays

In the next experiment the test system is HIV-1 Clade F. The experiment in a line: XTT cytopathicity assay, HIV-1 clade. The experiment is classed as cell-based. The following applies: CEM-SS. How it is done: as §2, §3, §4
The next experiment deals with HIV-1 Clade D. The experiment in a line: XTT cytopathicity assay, HIV-1 clade. The experiment is classed as cell-based. Particulars: CEM-SS. How it is done: as §2, §3, §4
The next experiment relates to HIV-1 Clade A. The experiment in a line: XTT cytopathicity assay, HIV-1 clade. Type of experiment: cell-based. The following applies: CEM-SS. How it is done:
as §2, §3, §4

For the next experiment, the system named is HIV-1 Clade C. The experiment in a line: XTT cytopathicity assay, HIV-1 clade. Type of experiment: cell-based. Particulars: CEM-SS. How it is done: as §2, §3, §4
For another experiment, the system named is HIV-1 Clade B. As to the kind of experiment: XTT cytopathicity assay, HIV-1 clade. Type of experiment: cell-based. The following applies: CEM-SS. How it is done: as §2, §3, §4
A further experiment deals with HIV-1 WEJO(SI). As to the kind of experiment: antiviral assay in PBL (p24), clinical isolate WEJO. Type of experiment: cell-based. Particulars: Human immunodeficiency virus 1, cell-free p24. Here is the method: as §1

Here are results for one molecule from patent US6046228A, “Anti-viral pharmaceutical compositions containing saturated 1,2-dithiaheterocyclic compounds and uses thereof” (priority 1999, dated 2000).

For orientation: EC50 means the concentration needed to bring the measured effect to its halfway point. A higher EC50 goes with a need for much substance. Regarding `O=S1(=O)C[C@H](O)[C@H](O)CS1` (relative stereo) [NSC 624151, cis-1,1-dioxo[1,2]dithiane-4,5-diol], the EC50 in the experiment with HIV-1 6R(AZT^R) is 7.2 µM; in the experiment on SIV, 22 µM; with HIV-1IIIB (Human immunodeficiency virus 1, AA5(B, EBV+), HIV-1IIIB), 2.6e-05 M; in the experiment with HIV-1IIIB (Human immunodeficiency virus 1, CEM-SS, CEM-SS (T), HIV-1IIIB, cell type panel), 6.1e-06 M; in the experiment on HIV-1IIIB (Human immunodeficiency virus 1, H9(T), HIV-1IIIB), 1.3e-05 M; with HIV-1IIIB (Human immunodeficiency virus 1, MT-2(T), HIV-1IIIB) it was 1.88e-05 M. The EC50 with HIV-1IIIB (Human immunodeficiency virus 1, U-937, U937(M), HIV-1IIIB) is 3.2e-06 M; in the experiment with HIV-1IIIB (Human immunodeficiency virus 1, CEM-SS, IIIB, Laboratory HIV-1), 2.08e-05 M; in the experiment with HIV-1 Clade F, 69 µM; in the experiment on HIV-1 Clade D it was 20 µM; with HIV-1 Clade A, 22 µM; in the experiment with HIV-1 Clade C, 2.9 µM. For the same molecule, the EC50 turned out to be 5.5 µM in the experiment on HIV-1 Clade B and 7.59 µM in the experiment on HIV-1 WEJO(SI). Besides, the “Pr55^gag processing to p41, p24, p9 and p7 proteins” value in the experiment on Pr55^gag was “prevents processing of precursor proteins to mature viral proteins”; with Pr55^gag (listed as 624151), “decrease in Pr55^gag processing to the p41, p24, p9 and p7 proteins”. Also, at gp120-CD4 (in words), the “inhibition of gp120-CD4 interaction” value was “did not inhibit”. Moreover, the IC50 on gp120-CD4 (read-out: gp120-CD4 ID50) and at HIV-1 protease (read-out: Protease Activity ID50) was greater than 100 µM in each case. Moreover, the “inhibition of HIV-1 protease” value against HIV-1 protease (in words) is given as “not inhibited”. In addition, in the experiment on HIV-1IIIB (in words), the “inhibition of infection by HIV-1IIIB in all cellular phenotypes tested” value is given as “inhibited by 624151 in all cellular phenotypes tested”.
